The structures appear in SMILES notation.

One may read the NOAEL as the highest tested level that showed no adverse finding.

In one data set the test system is Mus musculus. As to conditions: acute; oral; mortality.
The subject of another data set is Rattus norvegicus. The settings on record: reproduction developmental; mortality.
A further data set concerns Oryctolagus sp. As to conditions: reproduction developmental; mortality.
The next data set relates to Pontoscolex corethrurus. As to conditions: acute; mortality.
Another data set deals with Neovison vison. The settings on record: reproduction developmental; reproduction.
For another data set, the system named is Oncorhynchus mykiss. The settings on record: acute; mortality.
The test system of another data set is Scenedesmus quadricauda. As to conditions: acute.
A further data set has as its system Apis mellifera. As to conditions: acute, mortality.
In the next data set the test system is Daphnia magna. As to conditions: chronic/long-term.

As for `[I-].[K+]` [Potassium iodide], the LD50 with Mus musculus was 1860 mg/kg; in the data set on Bird (acute, oral, unspecified, mortality), more than 1180 mg/kg-day; in the data set with Apis mellifera (dermal), more than 0.78 µg/piece; in the data set on Apis mellifera (oral, unspecified) it was more than 2.4 µg/piece. The NOAEL in the data set on Rattus norvegicus, in the data set on Oryctolagus sp. and in the data set on Neovison vison was 0.5 mg/kg-day throughout. Besides, the NOEC in the data set on Bird (reproductive, reproduction) was 0.69 mg/kg-day; in the data set with Scenedesmus quadricauda it was 1310 mg/L; in the data set on Daphnia magna, 0.25 mg/L. In addition, the LC50 in the data set on Bird (short-term, oral, feed, mortality) is more than 258 mg/kg-day; with Pontoscolex corethrurus it was more than 12.5 mg/kg; with Oncorhynchus mykiss it was 2190 µg/mL.

Values taken from EPA's ToxValDB 9.5 (doi:10.2903/j.efsa.2013.2923).
